{
  "source": "patent US20240358625A1",
  "about": "“STABILIZATION OF MYCOSPORINE-LIKE AMINO ACIDS” (NAGASE & CO., LTD., priority 2021, published 2024)",
  "type_in_all_cases": "physicochemical",
  "key": {"[1]": {"experiment": "Influence of bases constituting nucleic acids on the stability of MGA (residual rate)", "conditions": "0.1% MGA, pH 7.5, 60° C. for 3 days; adenine 0.01%, guanine, cytosine, uracil, thymine 0.2%", "description": "The influence of bases (adenine, guanine, cytosine, uracil, and thymine) constituting nucleic acids on the stability of MGA and MG was investigated. A 0.1% MGA solution (adjusted to pH 7.5 with 0.1M phosphate buffer) each containing adenine (0.01%), guanine (0.2%), cytosine (0.2%), uracil (0.2%), or thymine (0.2%) was prepared. A 0.1% MG solution (adjusted to pH 7.5 with 0.1M phosphate buffer) each containing adenine (0.01%), cytosine (0.2%), uracil (0.2%), or thymine (0.2%) was prepared. After these solutions were left at 60° C. for 3 days for MGA, 20 days and 49 days for MG, the amounts of MGA and MG were measured to determine the residual rate."}, "[2]": {"experiment": "Effect of 4-DG ratio on stabilizing MG and on coloring of the MG solution", "conditions": "MG 0.1%, 4-DG ratio 1.5 to 11.1 parts by weight", "description": "The effect of 4-DG on stabilizing MG was investigated. Solutions at pH 7 (in 0.1M phosphate buffer) containing various ratios of 4-DG to MG (0.1%) were prepared, and the amount of MG after standing at 60° C. for 57 days was measured. Then, the MG residual rate was determined. Additionally, the absorbance (400 nm) of the solution was measured over time during the experiment period."}, "[3]": {"experiment": "Influence of pH on the stability of MG in solution and coloring of the MG solution", "description": "Influence of pH on the stability of MG in a solution and the coloring of an MG solution were investigated. Adjustment of the solution to each pH was performed using 0.1 M phosphate buffer and phosphoric acid and NaOH as necessary. The MG concentration in the solution was 0.1%. MG solutions of each pH were prepared and left at 60° C. for 4 days, and then the amount of MG and the absorbance (400 nm) of the solutions were measured. The MG residual rate was determined by comparing with the amount at the start of the experiment."}, "[4]": {"conditions": "weakly acidic to weakly alkaline conditions, 60° C. for 4 days"}},
  "data": [
    {"smiles": "Nc1nc2nc[nH]c2c(=O)[nH]1", "note": "[guanine]", "values": [
      {"measurement": "stabilizing effect on MGA", "setting": "[1]", "result": "confirmed"}
    ]},
    {"smiles": "COC1=C(NCC(=O)O)C[C@@](O)(CO)CC1=O", "note": "[MG, mycosporine-glycine]", "values": [
      {"measurement": "residual rate of MG", "setting": "[2]; pH 7, 60° C. for 57 days", "result": "≥ 74", "unit": "%"},
      {"measurement": "absorbance (400 nm) of the solution", "setting": "[2]; pH 7, 60° C., 57th day", "result": "≤ 0.17"},
      {"measurement": "MG residual rate", "setting": "[3]; 0.1% MG, 0.1 M phosphate buffer, pH 5.4 to 8.8, 60° C. for 4 days", "result": "≥ 88", "unit": "%"},
      {"measurement": "absorbance (400 nm) of the solution", "setting": "[3]; 0.1% MG, pH 5.4 to 8.0, 60° C. for 4 days", "result": "≤ 0.018"},
      {"measurement": "coloring of the MG solution", "setting": "[3]; [4]", "result": "suppressed"},
      {"measurement": "stability of MG", "setting": "[3]; [4]", "result": "stabilized"}
    ]}
  ]
}
